# PubChem BioAssay (NCI)
# Values joined by “and” are separate entries in the source; they are usually repeats but may differ in a detail not shown here. Equal values may be shown once.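 Grown in 96-well plates, cells were treated for 48 hours with each compound at five concentrations. Insufficient inhibition: endpoint recorded as highest concentration tested. Abbreviation: GI50, concentration required for 50% inhibition of growth. TGI denotes the concentration required for complete inhibition of growth.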
# How the values were obtained:
# Assay in all cases: NCI tumour cell line growth inhibition, 48 h
# [1] = tested on: 786-0 renal
# [2] = tested on: COLO 205 colon
# [3] = tested on: HCT-15 colon
# [4] = tested on: KM12 colon
# [5] = tested on: LOX IMVI melanoma
# [6] = tested on: MOLT-4 leukemia
# [7] = tested on: OVCAR-3 ovarian
# [8] = tested on: SN12C renal
# [9] = tested on: U251 CNS
# [10] = tested on: UO-31 renal
SMILES,TGI [1] [µM],TGI [2] [µM],TGI [3] [µM],TGI [4] [µM],TGI [5] [µM],TGI [6],TGI [7] [µM],TGI [8] [µM],TGI [9] [µM],TGI [10],GI50 [1],GI50 [2],GI50 [3],GI50 [4],GI50 [5],GI50 [6],GI50 [7],GI50 [8] [µM],GI50 [9],GI50 [10]
Cc1[nH]nc(C(=O)N/N=C/c2ccccc2Cl)c1N=NN(C)C,> 100,> 100,> 100,> 100,> 100,> 100 µM,> 100,> 100,> 100,> 100 µM,,,,,,,,,,
CC(C)C1=CC2=C(C(=O)C1=O)C13CCCC(C)(C)C1CC2OC3=O (stereo not given),31.9,34.8,30.7,> 100,39.7,32.7 µM,38.8,43.6,49.7,40.8 µM,,,,,,,,,,
CC1C(O)=C(O)c2ccccc2N1O (stereo not given),> 100,> 100,> 100,> 100,> 100,> 100 µM,> 100,> 100,> 100,> 100 µM,,,,,,,,,,
NC1(C(=O)N[C@@H](CCO)c2ccc(Cl)cc2)CCN(c2ncnc3[nH]ccc23)CC1,> 100,> 83.7,> 100,> 77.2,> 100,> 10 µM and 21.5 µM,> 100,> 100,> 100,> 5.24 µM and 72.1 µM,0.292 µM and 0.354 µM,1.9 µM and 10.9 µM,> 3.33 µM and 53.9 µM,0.927 µM and 2.78 µM,> 2.85 µM and 22.2 µM,0.505 µM and 0.644 µM,> 2.43 µM and 28 µM,13.9,> 3.38 µM and 2 µM,1.17 µM and 5.53 µM
